From ChEMBL document CHEMBL5154794, “Design, synthesis and biological evaluation of protease inhibitors containing morpholine cores with remarkable potency against both HIV-1 subtypes B and C” (Eur J Med Chem, 2022) come the findings set out here.

A value given as a limit tells only on which side of the number the result lay.

The subject of data set [1] is Human immunodeficiency virus 1. The data set is described as follows: Antiviral activity against DRV resistant HIV1. It is filed as functional, organism-based.
Data set [2] relates to Human immunodeficiency virus 1. The data set is described as follows: Antiviral activity against HIV1 subtype C isolate Indie. To be noted: Human immunodeficiency virus 1, subtype C isolate Indie. It is filed as functional, organism-based.
For data set [3], the system named is Human immunodeficiency virus 1. The data set is described as follows: Antiviral activity against HIV1 subtype C isolate ZM246. Format: functional, organism-based. To be noted: Human immunodeficiency virus 1, subtype C isolate ZM246.
Data set [4] relates to Human immunodeficiency virus 1. Nature of the data set: Antiviral activity against HIV1 NL4-3 Env-deficient VSV-G pseudotyped virus infected in human SUP-T1 cells assessed as inhibition of late stage viral production at 100 nM measured after 48 hrs by luciferase assay relative to control. Format: functional. Particulars: Human immunodeficiency virus 1, NL4-3, SUP-T1.
The nature of data set [5]: Cytotoxicity against human HEK-293T cells after 24 hrs by CCK-8 assay. Format: toxicity, cell-based. A general note: Tetrazolium assays rely on reduction of a dye to a coloured formazan, in cell work by metabolically active cells.
Data set [6] has as its system Human immunodeficiency virus 1. The data set is described as follows: Antiviral activity against wild type HIV1 NL4-3. It is filed as functional, organism-based. To be noted: Human immunodeficiency virus 1, NL4-3.
For data set [7], the system named is HIV-1 protease. The data set is described as follows: Selectivity index, ratio IC50 for cytotoxicity against human HEK-293T cells over IC50 for inhibition of HIV-1 protease. Format: toxicity, cell-based. To be noted: read-out: Ratio CC50/IC50.
For data set [8], the target named is Human immunodeficiency virus type 1 protease (Human immunodeficiency virus 1, UniProt Q72874). The data set is described as follows: Inhibition of HIV-1 protease using Arg-Glu (EDANS)-Ser-Gln-Asn-Tyr-Pro-lle-Val-Gln-Lys (DABCYL)-Arg as substrate preincubated for 20 to 30 mins followed by substrate addition and measured by FRET assay.
Data set [9] can be described thus: Selectivity index, ratio EC50 for Antiviral activity against DRV resistant HIV1 over EC50 for wild type HIV1 NL4-3.
For data set [10], the system named is Human immunodeficiency virus 1. Nature of the data set: Antiviral activity against HIV1 NL4-3 Env-deficient VSV-G pseudotyped virus infected in human SUP-T1 cells assessed as inhibition of late stage viral production at 10 uM measured after 48 hrs by luciferase assay relative to control. It is filed as functional. Particulars: Human immunodeficiency virus 1, NL4-3, SUP-T1.

By EC50 is commonly meant the midpoint of the concentration-response curve. For orientation: inhibition means the drop in the measured response relative to a control, in per cent. By CC50 is commonly meant the concentration giving 50% cytotoxicity. A low value points to harm at low concentration. Take `CC(C)CN(C[C@@H](O)[C@H](Cc1ccccc1)NC(=O)O[C@H]1CO[C@H]2OCC[C@H]21)S(=O)(=O)c1ccc(N)cc1`: the EC50 turned out to be 110 nM in data set [1], 1.26 nM in data set [2], 2.01 nM in data set [3] and 1.9 nM in data set [6]. In data set [4], the inhibition at 0.1 µM came to 100%. Also, in data set [5], the CC50 at 24 h was above 200000 nM.
As usually defined, the IC50 is the point on the concentration scale where inhibition reaches its midpoint. Lower therefore signals greater potency. As for `CC(C)CN(C[C@@H](O)[C@H](Cc1ccccc1)NC(=O)OC[C@H]1CNCCO1)S(=O)(=O)c1ccc(O)cc1`, in data set [7], the selectivity ratio was above 105000. In data set [8], this molecule came in with an IC50 of 1.9 nM. Besides, the CC50 at 24 h in data set [5] was above 200000 nM.
With `CNc1ccc(S(=O)(=O)N(CC(C)C)C[C@@H](O)[C@H](Cc2ccccc2)NC(=O)[C@H]2CNCCO2)cc1`, the selectivity ratio in [7] was above 2220. In addition, in data set [8], the IC50 was 90.2 nM. This molecule showed a CC50 at 24 h in data set [5] above 200000 nM.
Take `CC(C)CN(C[C@@H](O)[C@H](Cc1ccccc1)NC(=O)OC[C@H]1CN(C)CCO1)S(=O)(=O)c1ccc(NO)cc1`: in data set [7], the selectivity ratio was above 14400. 13.9 nM corresponded to half-maximal inhibition in data set [8] (IC50). The same molecule displayed a CC50 at 24 h in data set [5] above 200000 nM.
With `CC(C)CN(C[C@@H](O)[C@H](Cc1ccccc1)NC(=O)[C@@H]1COCCN1)S(=O)(=O)c1ccc(N)cc1`, the selectivity ratio in data set [7] was above 6390. In data set [8], this molecule had an IC50 of 31.3 nM. In [5], this molecule yielded a CC50 at 24 h above 200000 nM.
Turning to `COc1ccc(S(=O)(=O)N(CC(C)C)C[C@@H](O)[C@H](Cc2ccccc2)NC(=O)[C@@H]2COCCN2)cc1`, the EC50 turned out to be 3190 nM in data set [1] and 340 nM in data set [6]. Moreover, the selectivity ratio in data set [7] is above 513000. For the same molecule, the half-inhibitory concentration (IC50) in data set [8] amounted to 0.39 nM. Further, the “Ratio EC50” value in [9] amounted to 9. For the same molecule, the inhibition at 10 µM in data set [10] turned out to be 100%. The molecule also gave a half-maximal cytotoxic concentration (CC50) at 24 h in data set [5] above 200000 nM.
`CC(C)CN(C[C@@H](O)[C@H](Cc1ccccc1)NC(=O)[C@@H]1COCCN1)S(=O)(=O)c1ccc(O)cc1`: the EC50 in data set [1] turned out to be 1290 nM; in data set [2] it was 8.23 nM; in [3], 13.6 nM; in data set [6] it was 89 nM. The selectivity ratio in [7] is above 2.22e+06. This molecule also showed an IC50 in [8] of 0.09 nM. The “Ratio EC50” value in data set [9] is reported as 14. In data set [10], the inhibition at 10 µM turned out to be 100%. This molecule registered a CC50 at 24 h in data set [5] above 200000 nM.
For the molecule `CC(C)CN(C[C@@H](O)[C@H](Cc1ccccc1)NC(=O)[C@@H]1COCCN1C)S(=O)(=O)c1ccc(O)cc1`, the EC50 in data set [1] is 2200 nM; in data set [6] it was 170 nM. In addition, in data set [7], the selectivity ratio came to 113000. The same molecule gave a half-maximal inhibitory concentration (IC50) in data set [8] of 1.2 nM. In addition, in [9], the “Ratio EC50” value is on record as 13. The inhibition at 10 µM in [10] was 100%. The CC50 at 24 h in data set [5] amounted to 135000 nM.
On to `COc1ccc(S(=O)(=O)N(CC(C)C)C[C@@H](O)[C@H](Cc2ccccc2)NC(=O)OC[C@H]2CN(C)CCO2)cc1`, for which the selectivity ratio in [7] was above 88900. Moreover, in data set [8], half-maximal inhibition (IC50) was put at 2.25 nM. In data set [10], the inhibition at 10 µM amounted to 100%. The same molecule displayed a CC50 at 24 h in [5] above 200000 nM.
Turning to `CC(C)CN(C[C@@H](O)[C@H](Cc1ccccc1)NC(=O)OC[C@H]1CN(C)CCO1)S(=O)(=O)c1ccc(O)cc1`, the selectivity ratio in data set [7] is above 130000. The molecule also gave an IC50 in data set [8] of 1.54 nM. This molecule registered a CC50 at 24 h in data set [5] above 200000 nM.
Taken in the same sequence, the figures for `CC(C)CN(C[C@@H](O)[C@H](Cc1ccccc1)NC(=O)OC[C@H]1CNCCO1)S(=O)(=O)c1ccc(NO)cc1` were above 81600, 2.45 nM and above 200000 nM.
With `CC(C)CN(C[C@@H](O)[C@H](Cc1ccccc1)NC(=O)[C@@H]1COCCN1)S(=O)(=O)c1ccc(NO)cc1`, the selectivity ratio in data set [7] was found to be 48400. This molecule also displayed an IC50 in [8] of 2.99 nM. For the same molecule, the inhibition at 10 µM in [10] was 93%. For the same molecule, the CC50 at 24 h in [5] worked out at 145000 nM.
Regarding `COc1ccc(S(=O)(=O)N(CC(C)C)C[C@@H](O)[C@H](Cc2ccccc2)NC(=O)OC[C@H]2CNCCO2)cc1`, in data set [7], the selectivity ratio was above 299000. In addition, the IC50 in data set [8] was found to be 0.67 nM. Moreover, in data set [10], the inhibition at 10 µM worked out at 100%. The CC50 at 24 h in data set [5] is above 200000 nM.
For the molecule `CC(C)CN(C[C@@H](O)[C@H](Cc1ccccc1)NS(=O)(=O)N1CCOCC1)S(=O)(=O)c1ccc(N)cc1`, the selectivity ratio in data set [7] amounted to 2860. It took 35.2 nM to reach half-maximal inhibition in data set [8] (IC50). In data set [5], it took 101000 nM to reach half-maximal cytotoxicity (CC50 at 24 h).
As for `CC(C)CN(C[C@@H](O)[C@H](Cc1ccccc1)NC(=O)CN1CCS(=O)(=O)CC1)S(=O)(=O)c1ccc(NO)cc1`, the selectivity ratio in data set [7] was above 4220. In data set [8], this molecule registered a 50% inhibitory concentration (IC50) of 47.4 nM. Moreover, in [5], the CC50 at 24 h is above 200000 nM.
Taken in the same sequence, the figures for `CC(C)CN(C[C@@H](O)[C@H](Cc1ccccc1)NC(=O)[C@H]1CNCCO1)S(=O)(=O)c1ccc(O)cc1` were above 35400, 5.65 nM and above 200000 nM.
With `COc1ccc(S(=O)(=O)N(CC(C)C)C[C@@H](O)[C@H](Cc2ccccc2)NC(=O)[C@@H]2COCCN2C)cc1`, the EC50 in data set [1] amounted to 1990 nM; in data set [6], 350 nM. Also, the selectivity ratio in data set [7] is 27300. Besides, 4.83 nM corresponded to half-maximal inhibition in data set [8] (IC50). Further, the “Ratio EC50” value in [9] turned out to be 6. Further, the inhibition at 10 µM in [10] was determined as 100%. For the same molecule, in [5], the CC50 at 24 h came out at 132000 nM.
Consider `COc1ccc(S(=O)(=O)N(CC(C)C)C[C@@H](O)[C@H](Cc2ccccc2)NC(=O)CN2CCS(=O)(=O)CC2)cc1`, for which, in [7], the selectivity ratio was above 8230. Besides, in [8], half-maximal inhibition (IC50) was put at 24.3 nM. Further, in data set [5], the CC50 at 24 h was above 200000 nM.
With `COc1ccc(S(=O)(=O)N(CC(C)C)C[C@@H](O)[C@H](Cc2ccccc2)NC(=O)[C@H]2CNCCO2)cc1`, the selectivity ratio in data set [7] is above 17200. In data set [8], this molecule showed an IC50 of 11.7 nM. For the same molecule, the CC50 at 24 h in data set [5] is above 200000 nM.
As to `CNc1ccc(S(=O)(=O)N(CC(C)C)C[C@@H](O)[C@H](Cc2ccccc2)NC(=O)[C@@H]2COCCN2)cc1`, the selectivity ratio in [7] is above 2090. In addition, 95.8 nM corresponded to half-maximal inhibition in data set [8] (IC50). In [5], this molecule came in with a CC50 at 24 h above 200000 nM.
Taken in the same sequence, the figures for `CC(C)CN(C[C@@H](O)[C@H](Cc1ccccc1)NC(=O)[C@H]1CNCCO1)S(=O)(=O)c1ccc(N)cc1` were above 3680, 54.3 nM and above 200000 nM.
Regarding `CC(C)CN(C[C@@H](O)[C@H](Cc1ccccc1)NC(=O)[C@@H]1COCCN1)S(=O)(=O)c1ccc(S(C)(=O)=O)cc1`, the selectivity ratio in data set [7] is above 440. Moreover, the IC50 in data set [8] is 454 nM. The same molecule registered a CC50 at 24 h in data set [5] above 200000 nM.
`CC(C)CN(C[C@@H](O)[C@H](Cc1ccccc1)NC(=O)[C@@H]1COCCN1C)S(=O)(=O)c1ccc(NO)cc1`: the selectivity ratio in data set [7] was 3550. This molecule yielded an IC50 in data set [8] of 26.7 nM. Also, in data set [10], the inhibition at 10 µM was 78%. Besides, the midpoint of cytotoxicity in [5], the CC50 at 24 h, lay at 94600 nM.
Regarding `COc1ccc(S(=O)(=O)N(CC(C)C)C[C@@H](O)[C@H](Cc2ccccc2)NS(=O)(=O)N2CCOCC2)cc1`, the selectivity ratio in [7] came out at 3140. The same molecule returned an IC50 in [8] of 19.2 nM. Moreover, in data set [5], the CC50 at 24 h was 60300 nM.
Taken in the same sequence, the figures for `CC(C)CN(C[C@@H](O)[C@H](Cc1ccccc1)NC(=O)[C@H]1CNCCO1)S(=O)(=O)c1ccc(NO)cc1` were 328, 34 nM and 11200 nM.
Taken in the same sequence, the figures for `CC(C)CN(C[C@@H](O)[C@H](Cc1ccccc1)NC(=O)OC[C@H]1CNCCO1)S(=O)(=O)c1ccc(N)cc1` were above 10100, 19.7 nM and 200000 nM.
With `CC(C)CN(C[C@@H](O)[C@H](Cc1ccccc1)NC(=O)CN1CCS(=O)(=O)CC1)S(=O)(=O)c1ccc(O)cc1`, in data set [7], the selectivity ratio was above 18800. Moreover, the IC50 in data set [8] worked out at 10.6 nM. Besides, the CC50 at 24 h in data set [5] was above 200000 nM.
